Laboratory results from patent publication US12187681B2 (Shanghai East Hospital, priority 2019, dated 2025).

Columns and labels:
[1] = molecular target: T1, hERG (human ether-a-go-go related gene potassium channel, KCNH2) (Homo sapiens, UniProt Q12809); assay: hERG channel whole-cell patch clamp (Ion Channel Activity Measurement); format: cell-based; conditions: human, room temperature; for inhibition at 1 μM: pH 7.4, 1 μM test article; for inhibition at 10 μM: pH 7.4, 10 μM test article
T1 construct: expressed in transfected cells; host or cells: HEK293
Experimental: HEK293 cell line expressing the human ERG (ether-a-go-go related gene) potassium channel (Potassium voltage-gated channel subfamily H member 2). cDNA strictly similar to GenBank accession number: NM_000238
(§1) Cells expressing channels were cultured in medium supplemented with 20% FBS in HAM'S F12 culture dish. Cells grew in a humidified incubator at 37° C. under 5% carbon dioxide. To passage cells, remove poor medium and rinse the cells once with PBS 1X. […] Place plate on a 37° C. warming incubator 5 min. As soon as cells are detached, add 5 ml of 37° C. complete medium. Draw cell suspension into a sterile pipet and homogenize cells gently to dissociate cells aggregates. Amplify or maintain the cells by seeding 2.5*105 cells in a 6 cm dish (final volume: 5 ml). To maintain electrophysiological performances, cell density must not exceed 80%. On the day before patch clamp experiment, 3*103 cells were seeded on coverslips in the 24-well plate and incubated at 37° C. in 5% carbon dioxide.
(§2) Glass pipette (BF150-86-10, Sutter Instruments) was made by puller (P97, Sutter Instruments). The glass pipette was manipulated using Micro-manipulator (Carm-C-S, MCI Instruments) under the microscope (AE31EF-INV, Motic). After touching the cell, a slight suction was applied to achieve high seal (GΩ). Fast capacitance (in pF) compensation was made after high seal was achieved; after achieving high seal, the membrane was broken, Cell capacitance (in pF) compensation was made from whole-cell capacitance compensation after the whole cell mode was achieved. No leak subtraction was made.
(§3) Cell was incubated with the test article for 5 minutes, or until the current reached a steady-state level. Multiple concentrations of test article were tested. The test articles were applied gradually from low to high concentration. The test and control solutions were flown into a recording chamber mounted on the stage of an inverted microscope via a gravity-fed solution delivery system. During the experiment, solutions were withdrawn from the recording chamber by vacuum aspiration. Each concentration was tested at multiple times. Each cell acted as its own control. All tests were performed at room temperature (23-25° C.).
hERG current was recorded under a holding potential at −80 mV and then depolarized to 30 mV for 2.5 seconds to activate the hERG channel. The peak tail currents were induced by a repolarizing pulse to −50 mV for 4 seconds. This voltage-clamp pulse protocol was performed continuously during the experiment. An interpulse interval of 10 seconds allowed recovery from inactivation. An interpulse of −50 mV test for 0.5 second before 30 mV depolarized step was included for leak current correction

[2] = molecular target: T2, CaV1.2 (L-type voltage-dependent calcium channel; CACNA1C, CACNB2, CACNA2D1) (Homo sapiens, UniProt Q13936); assay: CaV1.2 channel whole-cell patch clamp (Ion Channel Activity Measurement); format: cell-based; conditions: human, room temperature; for inhibition at 5 min, 1 μM: pH 7.4, 1 μM test article; for inhibition at 5 min, 10 μM: pH 7.4, 10 μM test article, read-out: CaV 1.2 10 μM (ion-channel inhibition)
T2 construct: expressed in transfected cells; host or cells: CHO
Experimental: • CHO cell line stably expressing human calcium channel, voltage-dependent, L type, • CACNA1C: cDNA strictly similar to GenBank accession number: NM_000719 • CACNB2: cDNA strictly similar to GenBank accession number: NM_000724 • CACNA2D1: cDNA strictly similar to GenBank accession number: NM_000722 Iks Channel Cell Line:
as §1
Bath solution: 140 mM TEA-C1, 2 mM MgCl2·6H2O, 10 mM CaCl2, 10 mM HEPES, 5 mM D-glucose, pH=7.4 with TEA-OH. Pipette solution: 120 mM CsCl, 1 mM MgCl2·6H2O, 10 mM HEPES, 10 mM EGTA, 0.3 mM Na2-GTP, 4 mM Mg-ATP, pH=7.2 with CsOH.
as §2, §3
Cav1.2 current was recorded under a holding potential at −80 mV and then depolarized to +10 mV for 0.3 seconds. This protocol was repeated at 20 s intervals to observe the effect of test articles on the peak of Cav1.2 current.

[3] = HEK293 cells expressing the human ERG potassium channel

T1 sequence (Q12809 whole entry): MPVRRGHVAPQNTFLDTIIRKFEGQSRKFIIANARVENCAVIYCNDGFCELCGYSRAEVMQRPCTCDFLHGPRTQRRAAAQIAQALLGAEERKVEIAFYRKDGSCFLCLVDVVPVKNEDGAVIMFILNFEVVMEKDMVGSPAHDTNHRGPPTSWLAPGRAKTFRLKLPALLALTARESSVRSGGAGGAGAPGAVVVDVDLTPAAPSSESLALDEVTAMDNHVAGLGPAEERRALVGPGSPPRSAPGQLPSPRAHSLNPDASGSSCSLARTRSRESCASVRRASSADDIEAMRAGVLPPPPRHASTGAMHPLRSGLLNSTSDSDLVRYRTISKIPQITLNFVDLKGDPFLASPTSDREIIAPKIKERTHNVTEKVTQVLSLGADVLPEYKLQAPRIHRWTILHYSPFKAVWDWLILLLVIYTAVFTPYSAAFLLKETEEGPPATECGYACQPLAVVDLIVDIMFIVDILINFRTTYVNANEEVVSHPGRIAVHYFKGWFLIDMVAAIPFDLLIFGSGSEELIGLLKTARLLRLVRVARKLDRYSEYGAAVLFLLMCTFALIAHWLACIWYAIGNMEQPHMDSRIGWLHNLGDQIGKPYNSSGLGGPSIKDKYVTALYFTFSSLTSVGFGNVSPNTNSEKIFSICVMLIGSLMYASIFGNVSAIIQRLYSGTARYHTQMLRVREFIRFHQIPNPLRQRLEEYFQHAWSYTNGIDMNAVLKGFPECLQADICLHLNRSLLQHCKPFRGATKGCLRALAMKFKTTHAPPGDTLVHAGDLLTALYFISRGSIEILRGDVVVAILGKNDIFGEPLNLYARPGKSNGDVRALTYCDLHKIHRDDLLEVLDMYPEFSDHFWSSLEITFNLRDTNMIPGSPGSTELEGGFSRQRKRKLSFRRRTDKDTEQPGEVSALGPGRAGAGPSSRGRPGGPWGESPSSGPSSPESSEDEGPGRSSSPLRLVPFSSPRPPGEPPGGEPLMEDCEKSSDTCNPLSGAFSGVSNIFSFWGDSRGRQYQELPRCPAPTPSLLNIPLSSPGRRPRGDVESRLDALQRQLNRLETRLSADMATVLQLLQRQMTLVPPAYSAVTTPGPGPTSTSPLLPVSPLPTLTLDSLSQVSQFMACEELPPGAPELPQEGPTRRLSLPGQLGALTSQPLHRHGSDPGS
T2 sequence (Q13936 1-2138 isoform Q13936-12): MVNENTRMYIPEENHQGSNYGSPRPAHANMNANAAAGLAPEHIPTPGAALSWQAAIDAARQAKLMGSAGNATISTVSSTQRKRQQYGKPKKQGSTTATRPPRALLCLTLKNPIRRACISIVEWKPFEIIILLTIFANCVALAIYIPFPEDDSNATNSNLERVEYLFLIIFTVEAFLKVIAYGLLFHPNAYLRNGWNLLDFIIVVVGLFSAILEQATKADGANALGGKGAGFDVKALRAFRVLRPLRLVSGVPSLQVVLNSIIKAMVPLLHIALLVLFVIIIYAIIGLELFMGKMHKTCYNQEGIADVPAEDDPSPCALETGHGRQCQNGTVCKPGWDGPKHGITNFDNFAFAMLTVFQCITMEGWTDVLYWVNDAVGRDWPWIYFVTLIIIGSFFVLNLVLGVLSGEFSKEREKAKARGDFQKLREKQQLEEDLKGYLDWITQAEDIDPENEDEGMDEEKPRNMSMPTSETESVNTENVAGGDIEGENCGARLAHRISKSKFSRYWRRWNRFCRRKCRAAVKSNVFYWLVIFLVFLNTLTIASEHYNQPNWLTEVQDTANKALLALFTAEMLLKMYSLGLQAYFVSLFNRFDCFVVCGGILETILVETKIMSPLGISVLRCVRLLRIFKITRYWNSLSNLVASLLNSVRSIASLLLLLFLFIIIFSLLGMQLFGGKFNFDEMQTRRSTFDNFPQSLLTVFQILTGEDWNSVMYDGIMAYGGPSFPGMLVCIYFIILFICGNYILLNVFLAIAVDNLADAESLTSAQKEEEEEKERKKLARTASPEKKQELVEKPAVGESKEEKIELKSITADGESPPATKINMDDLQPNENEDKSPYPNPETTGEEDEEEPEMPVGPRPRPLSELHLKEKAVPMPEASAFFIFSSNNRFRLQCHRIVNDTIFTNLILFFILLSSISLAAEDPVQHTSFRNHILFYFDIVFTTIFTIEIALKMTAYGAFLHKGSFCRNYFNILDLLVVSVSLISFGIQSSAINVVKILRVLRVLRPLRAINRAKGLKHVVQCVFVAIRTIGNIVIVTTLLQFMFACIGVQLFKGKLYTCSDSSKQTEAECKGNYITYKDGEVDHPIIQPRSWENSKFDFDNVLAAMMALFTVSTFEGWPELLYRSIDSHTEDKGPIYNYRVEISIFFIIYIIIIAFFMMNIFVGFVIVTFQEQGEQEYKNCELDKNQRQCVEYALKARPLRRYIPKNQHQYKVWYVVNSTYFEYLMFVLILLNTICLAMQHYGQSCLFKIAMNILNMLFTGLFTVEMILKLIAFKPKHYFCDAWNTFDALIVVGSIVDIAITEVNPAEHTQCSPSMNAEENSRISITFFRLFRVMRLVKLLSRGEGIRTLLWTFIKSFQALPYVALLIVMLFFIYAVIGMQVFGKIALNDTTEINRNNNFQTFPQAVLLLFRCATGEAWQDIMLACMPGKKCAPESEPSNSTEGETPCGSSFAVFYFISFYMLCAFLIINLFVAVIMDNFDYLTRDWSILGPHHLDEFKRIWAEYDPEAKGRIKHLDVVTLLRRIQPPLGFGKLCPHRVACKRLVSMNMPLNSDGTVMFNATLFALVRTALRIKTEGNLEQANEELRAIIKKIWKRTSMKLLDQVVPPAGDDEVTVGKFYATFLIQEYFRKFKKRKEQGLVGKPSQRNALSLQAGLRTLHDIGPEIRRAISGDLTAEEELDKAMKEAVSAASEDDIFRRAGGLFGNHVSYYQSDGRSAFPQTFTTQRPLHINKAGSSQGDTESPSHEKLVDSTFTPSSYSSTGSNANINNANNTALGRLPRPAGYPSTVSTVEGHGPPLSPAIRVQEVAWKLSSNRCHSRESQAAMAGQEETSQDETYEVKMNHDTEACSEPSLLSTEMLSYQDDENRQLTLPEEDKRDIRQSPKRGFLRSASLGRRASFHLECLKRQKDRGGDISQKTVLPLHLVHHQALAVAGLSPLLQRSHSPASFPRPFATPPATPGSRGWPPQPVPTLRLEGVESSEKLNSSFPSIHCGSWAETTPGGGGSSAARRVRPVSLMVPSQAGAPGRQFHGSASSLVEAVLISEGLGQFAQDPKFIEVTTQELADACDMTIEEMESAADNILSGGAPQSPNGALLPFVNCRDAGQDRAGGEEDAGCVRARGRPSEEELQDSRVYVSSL
T2 sequence (Q08289 1-605 isoform Q08289-2 partner): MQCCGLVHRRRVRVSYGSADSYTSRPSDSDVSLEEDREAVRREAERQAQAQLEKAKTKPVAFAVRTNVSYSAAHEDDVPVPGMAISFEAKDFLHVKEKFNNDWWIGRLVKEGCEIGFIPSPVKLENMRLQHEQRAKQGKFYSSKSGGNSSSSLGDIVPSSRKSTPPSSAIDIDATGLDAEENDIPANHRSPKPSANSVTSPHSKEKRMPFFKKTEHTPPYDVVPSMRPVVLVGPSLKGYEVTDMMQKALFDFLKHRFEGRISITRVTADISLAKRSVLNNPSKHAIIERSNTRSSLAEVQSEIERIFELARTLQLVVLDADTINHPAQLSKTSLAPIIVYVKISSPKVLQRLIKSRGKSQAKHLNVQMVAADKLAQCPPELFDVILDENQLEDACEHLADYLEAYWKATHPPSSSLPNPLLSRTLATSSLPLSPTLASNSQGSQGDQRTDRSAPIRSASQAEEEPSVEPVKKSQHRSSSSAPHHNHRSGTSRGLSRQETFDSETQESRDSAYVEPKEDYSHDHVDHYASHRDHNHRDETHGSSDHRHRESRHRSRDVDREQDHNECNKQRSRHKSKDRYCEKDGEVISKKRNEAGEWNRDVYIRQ
T2 sequence (P54289 25-1091 isoform P54289-2 partner limits assumed): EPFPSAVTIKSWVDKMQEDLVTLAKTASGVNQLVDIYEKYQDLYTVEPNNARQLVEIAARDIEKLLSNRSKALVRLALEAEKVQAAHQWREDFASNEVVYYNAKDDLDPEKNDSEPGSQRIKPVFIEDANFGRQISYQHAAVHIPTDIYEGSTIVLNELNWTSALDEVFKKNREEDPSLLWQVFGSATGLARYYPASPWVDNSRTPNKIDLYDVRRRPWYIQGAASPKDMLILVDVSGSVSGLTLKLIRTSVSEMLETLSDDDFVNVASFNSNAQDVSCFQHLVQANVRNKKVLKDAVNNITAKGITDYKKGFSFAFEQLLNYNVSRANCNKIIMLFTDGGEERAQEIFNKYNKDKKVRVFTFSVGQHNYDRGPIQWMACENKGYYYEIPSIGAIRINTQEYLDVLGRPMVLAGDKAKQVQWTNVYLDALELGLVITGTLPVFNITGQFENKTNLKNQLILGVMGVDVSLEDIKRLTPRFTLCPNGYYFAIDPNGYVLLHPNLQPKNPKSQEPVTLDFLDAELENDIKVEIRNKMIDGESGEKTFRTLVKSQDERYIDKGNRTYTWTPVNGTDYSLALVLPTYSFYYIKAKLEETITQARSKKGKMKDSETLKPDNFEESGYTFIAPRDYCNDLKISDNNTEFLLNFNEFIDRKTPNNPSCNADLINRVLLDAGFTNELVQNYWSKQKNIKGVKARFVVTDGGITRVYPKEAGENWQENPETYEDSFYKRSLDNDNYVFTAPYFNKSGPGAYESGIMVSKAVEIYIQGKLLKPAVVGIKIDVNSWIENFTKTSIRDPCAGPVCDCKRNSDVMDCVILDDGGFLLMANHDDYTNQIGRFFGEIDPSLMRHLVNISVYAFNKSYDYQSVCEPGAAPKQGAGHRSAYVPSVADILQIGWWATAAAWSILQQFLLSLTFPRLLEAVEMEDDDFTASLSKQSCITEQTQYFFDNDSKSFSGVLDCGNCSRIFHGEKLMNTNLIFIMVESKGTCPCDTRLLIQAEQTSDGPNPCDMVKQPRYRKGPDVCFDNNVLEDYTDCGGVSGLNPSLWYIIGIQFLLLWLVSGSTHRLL
T2 sequence (P54289 957-1103 partner limits assumed): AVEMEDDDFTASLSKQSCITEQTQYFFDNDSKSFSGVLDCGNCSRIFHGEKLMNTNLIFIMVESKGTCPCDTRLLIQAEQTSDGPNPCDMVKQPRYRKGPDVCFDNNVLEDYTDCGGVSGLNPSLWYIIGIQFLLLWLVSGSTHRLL

Compound | inhibition at 1 μM [1, 3] [%] | inhibition at 10 μM [1, 3] [%] | inhibition at 5 min, 1 μM [2] [%] | inhibition at 5 min, 10 μM [2] [%] | inhibition at 1 μM [1] [%] | inhibition at 10 μM [1] [%]
O=C(c1c(O)ccc2ccccc12)c1c(O)ccc2ccccc12 [Compound A007, bis(2-hydroxynaphthalen-1-yl)methanone] | < 25 | 25 to 50 | < 25 | 50 to 75 |  | 
CC(c1c(O)ccc2ccccc12)c1c(O)ccc2ccccc12 [Compound A012, 1,1′-(ethane-1,1-diyl) bis (naphthalen-2-ol)] | < 25 | 25 to 50 | < 25 | 75 to 100 |  | 
Cc1ccc(O)c(Cc2c(O)ccc(C)c2C)c1C [Compound A017, 2,2′-methylenebis(3,4-dimethylphenol)] | < 25 | 25 to 50 | < 25 | 25 to 50 |  | 
Nc1ccc2ccccc2c1Cc1c(O)ccc2ccccc12 [Compound A021, 1-((2-aminonaphthalen-1-yl)methyl)naphthalen-2-ol] | < 25 | < 25 | < 25 | < 25 |  | 
Nc1ccc2ccccc2c1Cc1c(N)ccc2ccccc12 [Compound A022, 1,1′-methylenebis(naphthalen-2-amine)] |  |  | < 25 | 50 to 75 | < 25 | 50 to 75
Nc1cc(Cc2c(N)ccc3ccccc23)c2ccccc2c1 [Compound A022-2, 4-((2-aminonaphthalen-1-yl)methyl)naphthalen-2-amine] | < 25 | 75 to 100 | < 25 | 25 to 50 |  | 
CS(=O)(=O)Nc1ccc2ccccc2c1Cc1c(NS(C)(=O)=O)ccc2ccccc12 [Compound A024, N,N′-(methylenebis(naphthalene-1,2-diyl))dimethanesulfonamide] |  |  | < 25 | < 25 |  | 
CS(=O)(=O)Nc1cc(Cc2c(NS(C)(=O)=O)ccc3ccccc23)c2ccccc2c1 [Compound A024-2, N-(1-((3-(methylsulfonamido)naphthalen-1-yl)methyl)naphthalen-2-yl)methanesulfonamide] | < 25 | 50 to 75 | < 25 | 25 to 50 |  | 
CS(=O)(=O)Nc1cc2ccccc2cc1Cc1c(NS(C)(=O)=O)ccc2ccccc12 [Compound A024-3, N-(3-((2-(methylsulfonamido)naphthalen-1-yl)methyl)naphthalen-2-yl)methanesulfonamide] |  |  | < 25 | 25 to 50 |  | 
CS(=O)(=O)Nc1ccc2ccccc2c1Cc1c(O)ccc2ccccc12 [Compound A025, N-(1-((2-hydroxynaphthalen-1-yl)methyl)naphthalen-2-yl)methanesulfonamide] | < 25 | 25 to 50 | < 25 | 25 to 50 |  | 
Oc1ccc2ccccc2c1Cc1c(O)ncc2ccccc12 [Compound A027, 4-((2-hydroxynaphthalen-1-yl)methyl)isoquinolin-3-ol] | < 25 | < 25 | < 25 | 25 to 50 |  | 
Cc1cc2ccccc2c(Cc2c(O)c(C)cc3ccccc23)c1O [Compound A032, 1,1′-methylenebis(3-methylnaphthalen-2-ol)] | < 25 | < 25 | < 25 | < 25 |  | 
Cc1cc2ccccc2c(O)c1Cc1c(C)cc2ccccc2c1O [Compound A035, 2,2′-methylenebis(3-methylnaphthalen-1-ol)] | < 25 | 50 to 75 | < 25 | 75 to 100 |  | 
O=C(Nc1c(O)ccc2ccccc12)c1c(O)ccc2ccccc12 [Compound A044, 2-hydroxy-N-(2-hydroxynaphthalen-1-yl)-1-naphthamide] | < 25 | 25 to 50 | < 25 | < 25 |  | 
Oc1c(Cl)cc2ccccc2c1Cc1c(O)c(Cl)cc2ccccc12 [Compound A046, 1,1′-methylenebis(3-chloronaphthalen-2-ol)] | < 25 | < 25 | < 25 | < 25 |  | 
CC(C)(O)c1cc2ccccc2c(Cc2c(O)c(C(C)(C)O)cc3ccccc23)c1O [Compound A047, 1,1′-methylenebis(3-(2-hydroxypropan-2-yl)naphthalen-2-ol)] | < 25 |  | < 25 | 50 to 75 |  | 
Oc1c(F)cc2ccccc2c1Cc1c(O)c(F)cc2ccccc12 [Compound A049, 1,1′-methylenebis(3-fluoronaphthalen-2-ol)] | < 25 | 50 to 75 | < 25 | 50 to 75 |  | 
COc1cc2ccccc2c(Cc2c(O)c(OC)cc3ccccc23)c1O [Compound A050, 1,1′-methylenebis(3-methoxynaphthalen-2-ol)] | < 25 | < 25 | < 25 | < 25 |  | 
Oc1ccc2ccccc2c1Cn1c(O)nc2ccccc21 [Compound A056, 1-((2-hydroxynaphthalen-1-yl)methyl)-1H-benzo[d]imidazol-2-ol] | < 25 | < 25 | < 25 | 25 to 50 |  | 
O=C1Cc2ccccc2N1Cc1c(O)ccc2ccccc12 [Compound A057, 1-((2-hydroxynaphthalen-1-yl)methyl)indolin-2-one] | < 25 | < 25 | < 25 | < 25 |  | 
Oc1ccc2ccccc2c1Cn1nc(-c2ccccc2)cc1O [Compound A059] |  |  | < 25 | < 25 | < 25 | < 25
CC(=O)N(c1c(O)ccc2ccccc12)c1c(O)ccc2ccccc12 [Compound A075, N,N-bis(2-hydroxynaphthalen-1-yl)acetamide] | < 25 | < 25 | < 25 | < 25 |  | 
CCOCOc1cccc2c1C(=O)CCC2 [Compound A076, 8-(ethoxymethoxy)-3,4-dihydronaphthalen-1(2H)-one] | < 25 | 50 to 75 | < 25 | 25 to 50 |  | 
Oc1cccc2c1C(c1c(O)ccc3ccccc13)CCC2 (stereo not shown) [Compound A077, 1′,2′,3′,4′-tetrahydro-[1,1′-binaphthalene]-2,8′-diol] | < 25 | 50 to 75 | < 25 | < 25 |  | 
CCN(CC)CCOc1ccc2ccccc2c1Cc1c(OCCN(CC)CC)ccc2ccccc12 [Compound A103, 2,2′-((methylenebis(naphthalene-1,2-diyl))bis(oxy))bis(N,N-diethylethan-1-amine) formic acid] |  |  | < 25 | < 25 |  | 
CC(C)Oc1ccc2ccccc2c1Cc1c(OCCN)ccc2ccccc12 [Compound A246, 2-((1-((2-isopropoxynaphthalen-1-yl)methyl)naphthalen-2-yl)oxy)ethan-1-amine] | 25 to 50 |  |  |  |  | 
